US11306062B2, “Forms of fedratinib dihydrochloride” (Johnson Matthey Public Limited Company, priority 2019, dated 2022)

Columns and labels:
[1] = Retention of Form A on slurrying in multiple solvents (XRPD); type: physicochemical; conditions: ~30 mg in 0.2 mL of each of water, ethanol, MTBE, IPA, IPAc, 3-methyl-1-butanol, toluene, anisole, acetone, THF, MEK, MIBK, DCM, 1,4-dioxane, 2-butanol, 2-methyl THF, isobutyl acetate, tert-butanol, methyl cyclohexane, CPME; slurried about 3 days at 20° C.
Method: (§1) XRPD patterns are obtained using a Bruker D8 Advance equipped with a Cu Kα radiation source (λ=1.54 Å), a 9-position sample holder and a LYNXEYE super speed detector. Samples are placed on zero-background, silicon plate holders for analysis. One skilled in the art would recognize that the ° 2θ values and the relative intensity values are generated by performing a peak search on the measured data and the d-spacing values are calculated by the instrument from the ° 2θ values using Bragg's equation. One skilled in the art would further recognize that the relative intensity for the measured peaks may vary as a result of sample preparation, orientation and instrument used, for example.
In another embodiment, Form A of fedratinib diHCl is retained by producing a slurry. […]

[2] = Dynamic vapor sorption (DVS) humidity cycling, solid analysed by XRPD; type: physicochemical; conditions: start 50% relative humidity, up to 90%, down to 0%, 10% steps, cycle repeated 3 times
Method: as §1
In another embodiment, amorphous fedratinib diHCl is prepared by: • a) subjecting Form A of fedratinib diHCl to a dynamic vapor sorption method to yield amorphous fedratinib diHCl, wherein the dynamic vapor sorption method comprises exposing the Form A of fedratinib diHCl to a relative humidity of about 50% and adjusting the relative humidity to between about 0-90% with about a 10% increase or decrease in humidity at each step for 3 cycles.
Form A of fedratinib diHCl is subjected to DVS with initial exposure to 50% relative humidity. The relative humidity is then increased to 90% with a 10% increase in humidity at each step. […]

Cc1cnc(Nc2ccc(OCCN3CCCC3)cc2)nc1Nc1cccc(S(=O)(=O)NC(C)(C)C)c1 [Form A of fedratinib diHCl, N-tert-butyl-3-[[5-methyl-2-[4-(2-pyrrolidin-1-ylethoxy)anilino]pyrimidin-4-yl]amino]benzenesulfonamide]
solid form by XRPD after slurry [1]: determined to be Form A of fedratinib diHCl
solid form by XRPD after DVS [2]: determined to be amorphous fedratinib diHCl
